Reference: publication PMC2862721, “The Tegument of the Human Parasitic Worm Schistosoma mansoni as an Excretory Organ: The Surface Aquaporin SmAQP Is a Lactate Transporter” (PLoS ONE, 2010)

B1: SmAQP (Schistosoma mansoni) (protein)
chain: MVSCSEKYAHKQHIVADRLRLTSSPLVRACLGEFMGSIILMIFGSGVLAQVILGDHGKHAHGTFISVSLGWGFAVYMAVMFSGQCGSGHCNPAVTLAAAVVGKLPFRRIPFYTFFQILGAFLGSLVVFALYREKIIEYAKLNDNGALLLNTTGGIFVTNPSASHLTCFLDQVMGTALLTAGAFAITDPNGWKIPDYLHPLHLAFLVYAIVGCFALNAGAALNPARDLGPRLMIFIFGWGNKAFSGANYFFWIPIVGPYIGAVIGGILYEMTIGIHLDRKSDFVVDVDYDDSHRDGKKLVAYSSP
notes: 304 aa membrane protein

Experiments:
SmAQP = target: T1, SmAQP (Schistosoma mansoni, UniProt C4PYI6); test: inhibition of radiolabelled lactate uptake in Xenopus oocytes, variable-slope fit; assay type: cell-based; settings: read-out: Ki (half maximal inhibitory concentration); Ki50
T1 construct: gene AQP1; 304 aa membrane protein
T1 sequence (C4PYI6 1-304): B1 chain

[1] = substrate: C[C@H](O)C(=O)O; test: cells, lysate or membranes; assay type: cell-based, Schistosoma mansoni; settings: 0.1-100 mM lactate; labelled compound; non-injected oocyte values subtracted

Molecule	IC50 (SmAQP) [µM]	Km [1] [mM]
O=C(CCc1ccc(O)cc1)c1c(O)cc(O)cc1O [phloretin]	22	
B1		41 ± 5.8
